Test results published in ChEMBL document CHEMBL1151720, “Citreamicins with potent gram-positive activity” (J Nat Prod, 2008).
Values after ≈ are worked out from the molar mass of the structure shown.

What was measured:
[1] = system: Haemophilus influenzae; experiment: Antimicrobial activity against ampicillin-resistant Haemophilus influenzae 1742; format: functional
[2] = system: Staphylococcus aureus; experiment: Antimicrobial activity against methicillin-resistant Staphylococcus aureus 1137; format: functional
[3] = system: Staphylococcus aureus; experiment: Antimicrobial activity against linezolid-resistant methicillin-resistant Staphylococcus aureus 1725; format: functional
[4] = system: Staphylococcus aureus; experiment: Antimicrobial activity against vancomycin-intermediate Staphylococcus aureus 2012; format: functional
[5] = system: Moraxella catarrhalis; experiment: Antimicrobial activity against Moraxella catarrhalis 557; format: functional
[6] = system: Streptococcus pneumoniae; experiment: Antimicrobial activity against penicillin-susceptible Streptococcus pneumoniae 975; format: functional
[7] = system: Staphylococcus aureus; experiment: Antimicrobial activity against methicillin-susceptible Staphylococcus aureus 29213; format: functional
[8] = system: Streptococcus pneumoniae; experiment: Antimicrobial activity against penicillin-resistant Streptococcus pneumoniae 940; format: functional
[9] = system: Klebsiella pneumoniae; experiment: Antimicrobial activity against Klebsiella pneumoniae 2239; format: functional
[10] = system: Escherichia coli; experiment: Antimicrobial activity against Escherichia coli 25922 QC; format: functional; details: ATCC25922
[11] = system: Streptococcus pneumoniae; experiment: Antimicrobial activity against quinolone-resistant Streptococcus pneumoniae 376; format: functional
[12] = system: Serratia marcescens; experiment: Antimicrobial activity against Serratia marcescens 1635; format: functional
[13] = system: Pseudomonas aeruginosa; experiment: Antimicrobial activity against Pseudomonas aeruginosa 1473; format: functional
[14] = system: Haemophilus parainfluenzae; experiment: Antimicrobial activity against Haemophilus parainfluenzae 2319; format: functional
[15] = system: Escherichia coli; experiment: Antimicrobial activity against extended spectrum beta-lactamase producing Escherichia coli 2269; format: functional
[16] = Cytotoxicity against NHDF cells assessed as cell viability measured by change in ATP level after 48 hrs; format: cell-based; details: human
[17] = system: Staphylococcus aureus; experiment: Antimicrobial activity against methicillin-susceptible Staphylococcus aureus 6538; format: functional
[18] = system: Escherichia coli; experiment: Antimicrobial activity against Escherichia coli 1411; format: functional
[19] = system: Enterococcus faecium; experiment: Antimicrobial activity against vancomycin-resistant Enterococcus faecium 700221 clinical isolate; format: functional
[20] = system: Staphylococcus aureus; experiment: Antimicrobial activity against methicillin-resistant Staphylococcus aureus 43300; format: functional
[21] = Cytotoxicity against human Hep G2 cells assessed as cell viability measured by change in ATP level after 48 hrs; format: functional; details: HepG2, 48 h
[22] = system: Klebsiella pneumoniae; experiment: Antimicrobial activity against ampC beta-lactamase producing multidrug-resistant Klebsiella pneumoniae 2262; format: functional

| Compound | MIC [1] [µg/mL] | MIC [2] [µg/mL] | MIC [3] [µg/mL] | MIC [4] [µg/mL] | MIC [5] [µg/mL] | MIC [6] [µg/mL] | MIC [7] [µg/mL] | MIC [8] [µg/mL] | MIC [9] [µg/mL] | MIC [10] [µg/mL] | MIC [11] [µg/mL] | MIC [12] [µg/mL] | MIC [13] [µg/mL] | MIC [14] [µg/mL] | MIC [15] [µg/mL] | CC90 at 48 h [16] [µg/mL] | MIC [17] [µg/mL] | MIC [18] [µg/mL] | MIC [19] [µg/mL] | MIC [20] [µg/mL] | also measured |
| --- | --- | --- | --- | --- | --- | --- | --- | --- | --- | --- | --- | --- | --- | --- | --- | --- | --- | --- | --- | --- | --- |
| CCCCCCCCCC(=O)N[C@@H](Cc1c[nH]c2ccccc12)C(=O)N[C@H](CC(N)=O)C(=O)N[C@@H](CC(=O)O)C(=O)N[C@@H]1C(=O)NCC(=O)N[C@@H](CCCN)C(=O)N[C@@H](CC(=O)O)C(=O)N[C@H](C)C(=O)N[C@@H](CC(=O)O)C(=O)NCC(=O)N[C@H](CO)C(=O)N[C@@H]([C@H](C)CC(=O)O)C(=O)N[C@@H](CC(=O)c2ccccc2N)C(=O)O[C@@H]1C | > 64 | 1 (≈ 0.617 µM) | 1 (≈ 0.617 µM) | 8 (≈ 4.94 µM) | 16 (≈ 9.87 µM) | 0.25 (≈ 0.154 µM) | 1 (≈ 0.617 µM) | 0.25 (≈ 0.154 µM) | > 64 | > 64 | 0.25 (≈ 0.154 µM) | > 64 | > 64 | > 64 | > 64 |  |  |  |  |  |  |
| COc1ccc2oc3c(c(=O)c2c1O)C(=O)c1c(ccc2cc4c(c(O)c12)C(=O)N1C(C)(C4)OC(=O)C1(C)CO)C3=O (stereo not drawn) [CITREAMICIN DELTA] | 1 (≈ 1.75 µM) | 2 (≈ 3.5 µM) | 1 (≈ 1.75 µM) | 2 (≈ 3.5 µM) | 4 (≈ 7 µM) | ≤ 0.06 | 1 (≈ 1.75 µM) |  | > 64 | > 64 |  | > 64 | > 64 | 1 (≈ 1.75 µM) | > 64 | 0.3 (≈ 0.525 µM) | ≤ 0.5 | > 128 | ≤ 0.25 | 0.5 (≈ 0.875 µM) | CC90 [21]: 2.4 µg/mL (≈ 4.2 µM) |
| COc1ccc2oc3c(O)c4c(c(O)c3c(=O)c2c1O)-c1c(cc2c(c1O)C(=O)N1C(C)(C2)OC(=O)C1(C)CO)CC4 (stereo not drawn) [CITREAMICIN EPSILON] | > 32 | 0.25 (≈ 0.434 µM) | 0.12 (≈ 0.209 µM) | 0.25 (≈ 0.434 µM) | 0.5 (≈ 0.869 µM) | 0.25 (≈ 0.434 µM) | 0.12 (≈ 0.209 µM) | 0.12 (≈ 0.209 µM) | > 32 | > 32 | 0.25 (≈ 0.434 µM) | > 32 | > 32 | > 32 | > 32 | 0.1 (≈ 0.174 µM) | 0.13 (≈ 0.226 µM) | > 64 | 0.5 (≈ 0.869 µM) | 0.13 (≈ 0.226 µM) | MIC [22]: > 32 µg/mL; CC90 [21]: 1 µg/mL (≈ 1.74 µM) |
| CC(=O)NC[C@H]1CN(c2ccc(N3CCOCC3)c(F)c2)C(=O)O1 [LINEZOLID] | 8 (≈ 23.7 µM) |  |  | 1 (≈ 2.96 µM) | 4 (≈ 11.9 µM) |  |  | 0.25 (≈ 0.741 µM) | > 64 | > 64 |  | > 64 | > 64 | 16 (≈ 47.4 µM) | > 64 |  | 0.5 (≈ 1.48 µM) |  |  | 1 (≈ 2.96 µM) |  |
| C[C@@H](O)[C@H]1C(=O)N2C(C(=O)O)=C(S[C@@H]3CN[C@H](C(=O)N(C)C)C3)[C@H](C)[C@H]12 [MEROPENEM] | 0.06 (≈ 0.156 µM) |  | 0.25 (≈ 0.652 µM) | > 4 | ≤ 0.004 | 0.015 (≈ 0.0391 µM) | 0.25 (≈ 0.652 µM) | 1 (≈ 2.61 µM) | 0.06 (≈ 0.156 µM) | 0.03 (≈ 0.0782 µM) | 0.015 (≈ 0.0391 µM) | 0.06 (≈ 0.156 µM) | 4 (≈ 10.4 µM) | 0.03 (≈ 0.0782 µM) | 0.03 (≈ 0.0782 µM) |  |  |  |  |  | MIC [22]: > 64 µg/mL |
